Assay results: ChEMBL document CHEMBL1154572, “Stephanotic acid, a novel cyclic pentapeptide from the stem of Stephanotis floribunda” (2000)

Columns and labels:
L1210 = assay: Cytotoxicity against mouse L1210 cells; format: functional; details: L1210, read-out: ED50
KB = assay: Cytotoxicity against human KB cells; format: functional; details: read-out: ED50

Row | SMILES | EC50 (L1210) [µg/mL] | EC50 (KB) [µg/mL]
1 | CC[C@H](C)[C@@H]1NC(=O)[C@@H](NC(=O)[C@@H]2CCC(=O)N2)[C@@H](C(C)C)c2ccc3c(c[nH]c3c2)C[C@@H](C(=O)O)NC(=O)[C@H](C(C)C)NC1=O [STEPHANOTIC ACID] | > 50 | > 50
2 | CC[C@H](C)[C@@H]1NC(=O)[C@@H](NC(=O)[C@@H]2CCC(=O)N2)[C@@H](C(C)C)c2ccc3c(c[nH]c3c2)C[C@@H](C(=O)OC)NC(=O)[C@H](C(C)C)NC1=O [METHYL STEPHANATE] | > 50 | > 50
